Molecules are shown by their SMILES. Read-outs that look alike come from different tables or passages of the source.

This experiment has as its system HIV-1 (H9IIIB or NL4-3 virus) replication in MT4-GFP cells. In words: microbe, parasite or virus in culture. As to conditions: inhibition of reproductive ratio R0, 48-72 h post-infection. The experiment is classed as cell-based.
The mark [1] stands for this setting: MT4-GFP cells infected with HIV-1, 100% normal human serum, read-out: ViKinG IP (nM) with 100% NHS.
Setting [2] is: Human immunodeficiency virus 1, NL43, MT4-GFP cells infected with HIV-1, 100% normal human serum, read-out: ViKinG IP (nM) with 100% NHS.
[3] abbreviates: Human immunodeficiency virus 1, NL43, MT4-GFP cells infected with HIV-1, serum free conditions (0% NHS), read-out: ViKinG IP (nM) with 0% NHS.
The mark [4] stands for this setting: MT4-GFP cells infected with HIV-1, serum free conditions (0% NHS), read-out: ViKinG IP (nM) with 0% NHS.
Setting [5] is: Human immunodeficiency virus 1, NL43, MT4-GFP cells infected with HIV-1, 10% normal human serum, read-out: ViKinG IP (nM) with 10% NHS.

In the case of `CN1C(=O)c2c(O)c(=O)c(C(=O)NCc3ccc(F)c(Cl)c3F)cn2N(C)C12CCOC2` (single isomer, unassigned) [Compound 118], the IC50 under setting [1] was found to be 101 nM.
Regarding `CN1C(=O)c2c(O)c(=O)c(C(=O)NCc3ccc(F)cc3F)cn2CC12COC2` [Compound 68], the IC50 was determined as 134 nM under setting [2] and 7.6 nM under setting [3].
As for `CCOP(=O)(CCN1n2cc(C(=O)NCc3ccc(F)cc3F)c(=O)c(O)c2C(=O)N(C)C12CCOC2)OCC` (single isomer, unassigned) [Compound 160], the IC50 under setting [1] amounted to 46 nM.
With `CCN1n2cc(C(=O)NCc3ccc(F)cc3F)c(=O)c(O)c2C(=O)N(C)C12CCOC2` (single isomer, unassigned) [Compound 150], the IC50 reads like this: under setting [1], 71 nM; under setting [4], 0.6 nM.
On to `CN1C(=O)c2c(O)c(=O)c(-c3cnn(Cc4ccc(F)cc4F)c3)cn2CC12CCOC2` (centres unmarked) [Compound 90], for which the IC50 came out at 123 nM under setting [2] and 34.1 nM under setting [3].
As to `CN1C(=O)c2c(O)c(=O)c(C(=O)NCc3ccc(F)cc3F)cn2N(CCO)C12CCOC2` (centres unmarked) [Compound 147], the IC50 is, setting by setting: under setting [3], 1.6 nM; under setting [1], 74 nM.
Turning to `CC1OCCC12N(C)C(=O)c1c(O)c(=O)c(C(=O)NCc3ccc(F)cc3F)cn1N2C` (single isomer, unassigned) [Compound 134], the IC50 under setting [1] was 65 nM and the IC50 under setting [4] turned out to be 0.9 nM.
With `CCN1C(=O)c2c(O)c(=O)c(-c3nnc(Cc4ccc(F)cc4F)s3)cn2N(C)C12CCNCC2` [Compound 32], the IC50 runs as follows: under setting [2], 74 nM; under setting [3], 8 nM.
For `CN1C(=O)c2c(O)c(=O)c(C(=O)NCc3ccc(F)cc3)cn2N(C)C12CCOC2` (single isomer, unassigned) [Compound 114], the IC50 came out at 87 nM under setting [1] and 0.8 nM under setting [4].
In the case of `CN1C(=O)c2c(O)c(=O)c(C(=O)NCc3ccc(F)cc3F)cn2CC12CCNCC2` [Compound 88], the IC50 runs as follows: under setting [2], 97 nM; under setting [3], 10.3 nM.
For `O=C1c2c(O)c(=O)c(-c3nnc(Cc4ccc(F)cc4F)s3)cn2CC2(CCOC2)N1CCO` (centres unmarked) [Compound 97] the same measures were 1050 nM and 41.7 nM.
The corresponding values for `COCCCN1C(=O)c2c(O)c(=O)c(C(=O)NCc3ccc(F)cc3F)cn2N(C)C12COC2` [Compound 145] are 174 nM and 1.4 nM.
`CCOC(=O)N1CCC2(CC1)N(CC)C(=O)c1c(O)c(=O)c(-c3nnc(Cc4ccc(F)cc4F)s3)cn1N2C` [Compound 6]: the IC50 is, setting by setting: under setting [5], 13 nM; under setting [2], 159 nM.
Consider `CN1C(=O)c2c(O)c(=O)c(-c3nnc(Cc4ccc(F)cc4F)s3)cn2N(C)C12CCN(S(C)(=O)=O)CC2` [Compound 26], for which the IC50 reads like this: under setting [5], 26 nM; under setting [2], 161 nM; under setting [3], 11.5 nM.
Take `CCN1C(=O)c2c(O)c(=O)c(-c3nnc(Cc4ccc(F)cc4F)s3)cn2N(C)C12CCN(S(C)(=O)=O)CC2` [Compound 12]: the IC50 was 24 nM under setting [5] and 126 nM under setting [2].
As to `CN1C(=O)c2c(O)c(=O)c(-c3nnc(Cc4ccc(F)cc4F)s3)cn2N(C)C12CCCNCC2` (centres unmarked) [Compound 34], the IC50 reads like this: under setting [5], 34 nM; under setting [3], 9.7 nM.
Turning to `COCCN1C(=O)c2c(O)c(=O)c(C(=O)NCc3ccc(F)cc3)cn2CC12CCOC2` (single isomer, unassigned) [Compound 51], the IC50 runs as follows: under setting [2], 196 nM; under setting [3], 4.8 nM.
For `COCCCN1C(=O)c2c(O)c(=O)c(C(=O)NCc3ccc(F)cc3F)cn2N(C)C12CCOCC2` [Compound 141] the same measures were 71 nM and 2.3 nM.
For the molecule `CN1C(=O)c2c(O)c(=O)c(C(=O)NCc3ccc(F)c(Cl)c3)cn2N(C)C12CCOC2` (single isomer, unassigned) [Compound 108], the IC50 under setting [1] amounted to 218 nM and the IC50 under setting [4] was determined as 1.1 nM.
Regarding `CCN1C(=O)c2c(O)c(=O)c(-c3nnc(Cc4ccc(F)cc4F)s3)cn2CC12CCOCC2` [Compound 99], the IC50 runs as follows: under setting [2], 870 nM; under setting [3], 40.9 nM.
As to `CCN1C(=O)c2c(O)c(=O)c(-c3nnc(Cc4ccc(F)cc4F)s3)cn2N(C)C12CCN(C(=O)OC)CC2` [Compound 8], the IC50 reads like this: under setting [2], 131 nM; under setting [3], 5.5 nM.
Take `CN1C(=O)c2c(O)c(=O)c(C(=O)NCc3ccc(F)cc3F)cn2N(CCCC(F)(F)F)C12CCOC2` (single isomer, unassigned) [Compound 164]: the IC50 under setting [2] came out at 178 nM.
For the molecule `CCN1C(=O)c2c(O)c(=O)c(-c3nnc(Cc4ccc(F)cc4F)s3)cn2N(C)C12CCS(=O)(=O)CC2` [Compound 16], the IC50 under setting [5] worked out at 47 nM and the IC50 under setting [3] was found to be 17.3 nM.
On to `CN1C(=O)c2c(O)c(=O)c(C(=O)NCc3ccc(F)c(Cl)c3)cn2CC12CCOC2` (single isomer, unassigned) [Compound 61], for which the IC50 under setting [2] was 119 nM and the IC50 under setting [3] came to 2.4 nM.
For `CN1C(=O)c2c(O)c(=O)c(C(=O)NCc3c(F)cccc3F)cn2N(C)C12CCOC2` (single isomer, unassigned) [Compound 115] the same measures were 54 nM and 1.2 nM.
As to `COCCN1C(=O)c2c(O)c(=O)c(C(=O)NCc3ccc(F)c(Cl)c3F)cn2CC12CCOC2` (single isomer, unassigned) [Compound 54], the IC50 by setting is: under setting [2], 989 nM; under setting [3], 2.3 nM.
As to `CCN1C(=O)c2c(O)c(=O)c(-c3nnc(Cc4ccc(F)cc4F)s3)cn2N(C)C12CCN1C(=O)CCC1C2` (centres unmarked) [Compound 14], under setting [5], the IC50 turned out to be 41 nM.
`CCOCCN1C(=O)c2c(O)c(=O)c(C(=O)NCc3ccc(F)cc3F)cn2N(C)C12CCOCC2` [Compound 142]: the IC50 by setting is: under setting [5], 13 nM; under setting [2], 171 nM; under setting [3], 1.3 nM.
As for `CN1C(=O)c2c(O)c(=O)c(C(=O)NCc3ccc(F)c(Cl)c3F)cn2N(C)C12CCOC2` (single isomer, unassigned) [Compound 117], the IC50 under setting [3] turned out to be 0.5 nM and the IC50 under setting [1] stood at 246 nM.
With `COCCCN1C(=O)c2c(O)c(=O)c(C(=O)NCc3ccc(F)cc3F)cn2CC12CCNCC2` [Compound 89], the IC50 was found to be 87 nM under setting [2] and 16.1 nM under setting [3].
Regarding `CCN1C(=O)c2c(O)c(=O)c(C(=O)NCc3ccc(F)cc3F)cn2CC12CCOCC2` [Compound 40], the IC50 under setting [2] came out at 236 nM and the IC50 under setting [3] was 2.8 nM.
For the molecule `CCN1C(=O)c2c(O)c(=O)c(C(=O)NCc3ccc(F)cc3F)cn2N(C)C12CCOC2` (single isomer, unassigned) [Compound 119], the IC50 runs as follows: under setting [5], 11 nM; under setting [2], 163 nM; under setting [3], 1.2 nM.
In the case of `CCCN1C(=O)c2c(O)c(=O)c(-c3nnc(Cc4ccc(F)cc4F)s3)cn2N(C)C12CCN(C(=O)OCC)CC2` [Compound 7], the IC50 is, setting by setting: under setting [5], 58 nM; under setting [2], 148 nM; under setting [3], 29.9 nM.
As for `O=C(NCc1ccc(F)cc1F)c1cn2c(c(O)c1=O)C(=O)N(CCCC(F)(F)F)C1(CCOCC1)C2` [Compound 46], the IC50 was 110 nM under setting [2] and 3.2 nM under setting [3].
`CC1OCCC12N(C)C(=O)c1c(O)c(=O)c(C(=O)NCc3ccc(F)cc3F)cn1N2C` (single isomer, unassigned) [Compound 133]: under setting [1], the IC50 was determined as 55 nM.
On to `COCCCN1C(=O)c2c(O)c(=O)c(C(=O)NCc3ccc(F)cc3F)cn2CC12CCCOC2` (single isomer, unassigned) [Compound 85], for which the IC50 is, setting by setting: under setting [3], 5.4 nM; under setting [1], 78 nM.
As to `COCCN1n2cc(C(=O)NCc3ccc(F)cc3F)c(=O)c(O)c2C(=O)N(C)C12CCOC2` (single isomer, unassigned) [Compound 155], under setting [1], the IC50 came to 37 nM.
On to `CCOC(=O)N1CCC2(CC1)Cn1cc(-c3nnc(Cc4ccc(F)cc4F)s3)c(=O)c(O)c1C(=O)N2C` [Compound 94], for which the IC50 is, setting by setting: under setting [2], 116 nM; under setting [3], 10.6 nM.
On to `CN1C(=O)c2c(O)c(=O)c(C(=O)NCc3ccc(F)c(Cl)c3)cn2N(C)C12CCOC2` (single isomer, unassigned) [Compound 107], for which the IC50 under setting [3] turned out to be 1.2 nM and the IC50 under setting [1] is 790 nM.
Turning to `COCCN1C(=O)c2c(O)c(=O)c(C(=O)NCc3ccc(F)cc3F)cn2CC12CCOCC2` [Compound 42], the IC50 stood at 234 nM under setting [2] and 2.4 nM under setting [3].
In the case of `CN1C(=O)c2c(O)c(=O)c(C(=O)NCc3ccc(F)c(Cl)c3)cn2CC12CCOC2` (single isomer, unassigned) [Compound 62], the IC50 turned out to be 72 nM under setting [1] and 3.1 nM under setting [4].
`CCN1C(=O)c2c(O)c(=O)c(C(=O)NCc3ccc(F)cc3F)cn2CC12COC2` [Compound 69]: the IC50 is, setting by setting: under setting [2], 452 nM; under setting [3], 3.5 nM.
With `CN1C(=O)c2c(O)c(=O)c(C(=O)NCc3ccc(F)cc3F)cn2N(Cc2ccccc2)C12CCOC2` (single isomer, unassigned) [Compound 163], under setting [1], the IC50 came to 35 nM.
Turning to `COCN1n2cc(C(=O)NCc3ccc(F)cc3F)c(=O)c(O)c2C(=O)N(C)C12CCOC2` (single isomer, unassigned) [Compound 153], the IC50 runs as follows: under setting [3], 1.3 nM; under setting [1], 275 nM.
Take `CCOCCN1C(=O)c2c(O)c(=O)c(C(=O)NCc3ccc(F)cc3F)cn2CC12CCOCC2` [Compound 44]: the IC50 reads like this: under setting [2], 57 nM; under setting [3], 5.8 nM.
The corresponding values for `CN1C(=O)c2c(O)c(=O)c(C(=O)NCc3ccc(F)cc3)cn2N(C)C12CCOC2` (single isomer, unassigned) [Compound 113] are 94 nM and 1.5 nM.

For the origin of these results see patent US9707234B2, “Spirocyclic hetercycle compounds useful as HIV integrase inhibitors” (MERCK SHARP & DOHME CORP., priority 2013, dated 2017).
